Laboratory results published in ChEMBL document CHEMBL1201862, “PubChem BioAssay data set” (2004).
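Results reflect a 48-hour exposure of cells in 96-well plates to compound at five concentrations. GI50 is the concentration that inhibits growth by half.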 The source made the active and inactive calls. No stated cut-off is given here; in the data, active = GI50 up to about 1.1 µM and inactive = higher.

How the values were obtained:
Experiment in all cases: NCI anticancer screen, dose series, 48 h
[1] = test system: A498
[2] = test system: A549
[3] = test system: COLO 205
[4] = test system: HCC 2998
[5] = test system: HCT-15
[6] = test system: IGROV-1
[7] = test system: KM12
[8] = test system: NCI-H23
[9] = test system: OVCAR-4
[10] = test system: OVCAR-5
[11] = test system: SF-268
[12] = test system: SK-MEL-28
[13] = test system: SN12C
[14] = test system: TK-10
[15] = test system: UACC-62
[16] = test system: EKVX
[17] = test system: HL-60

Row | SMILES | GI50 [1] | GI50 [2] | GI50 [3] | GI50 [4] | GI50 [5] [µM] | GI50 [6] | GI50 [7] | GI50 [8] | GI50 [9] | GI50 [10] | GI50 [11] | GI50 [12] | GI50 [13] | GI50 [14] | GI50 [15] | GI50 [16] | GI50 [17]
1 | CN(C)CC1(C)CC/C(=C\c2ccccc2)C1=O (stereo unspecified) | > 100 µM (inactive) | > 100 µM (inactive) | > 100 µM (inactive) | > 100 µM (inactive) | 63 | > 100 µM (inactive) | > 100 µM (inactive) | > 100 µM (inactive) | > 100 µM (inactive) | > 100 µM (inactive) | > 100 µM (inactive) | > 100 µM (inactive) | > 100 µM (inactive) | > 100 µM (inactive) | > 100 µM (inactive) |  | 
2 | COC(=O)N/N=C/C(=C/Nc1ccccc1)[N+](=O)[O-] |  | > 100 µM (inactive) | > 100 µM (inactive) | > 100 µM (inactive) | 59 | > 100 µM (inactive) |  | > 100 µM (inactive) | > 100 µM (inactive) |  | > 100 µM (inactive) | > 100 µM (inactive) | > 100 µM (inactive) | > 100 µM (inactive) | 46.2 µM (inactive) | > 100 µM (inactive) | > 100 µM (inactive)
3 | O=C1CCCC[C@H]1[C@H]1CCC[C@@H]([C@H]2CCCCC2=O)C1=O | > 100 µM (inactive) | > 100 µM (inactive) | > 100 µM (inactive) | > 100 µM (inactive) | > 100 | > 100 µM (inactive) | > 100 µM (inactive) | > 100 µM (inactive) | > 100 µM (inactive) | > 100 µM (inactive) | > 100 µM (inactive) | > 100 µM (inactive) | > 100 µM (inactive) | > 100 µM (inactive) | > 100 µM (inactive) | > 100 µM (inactive) | > 100 µM (inactive)
4 | C/C(=N\NC(=O)CC(=O)Nc1ccc(Cl)cc1)c1cc2ccccc2oc1=O |  | > 100 µM (inactive) | > 100 µM (inactive) |  | > 100 | > 100 µM (inactive) | > 100 µM (inactive) | > 100 µM (inactive) |  |  |  | > 100 µM (inactive) | > 100 µM (inactive) | > 100 µM (inactive) | > 100 µM (inactive) | > 100 µM (inactive) | > 100 µM (inactive)
5 | CCCN(CCCCC(NC(C)=O)C(=O)NCc1ccccc1)C(=O)N(C)N=O (stereo unspecified) | > 100 µM (inactive) | > 100 µM (inactive) | > 100 µM (inactive) | > 100 µM (inactive) | > 100 | > 100 µM (inactive) | > 100 µM (inactive) | > 100 µM (inactive) | > 100 µM (inactive) | > 100 µM (inactive) | > 100 µM (inactive) | > 100 µM (inactive) | > 100 µM (inactive) | > 100 µM (inactive) | > 100 µM (inactive) | > 100 µM (inactive) | 
6 | C/C(=N\NC(N)=S)C(CN(CC(C)C)CC(C)C)C(=O)Nc1ccc(C)cc1C (stereo unspecified) | > 100 µM (inactive) | > 100 µM (inactive) | > 100 µM (inactive) | > 100 µM (inactive) | > 100 | > 100 µM (inactive) | > 100 µM (inactive) | > 100 µM (inactive) | > 100 µM (inactive) | > 100 µM (inactive) | > 100 µM (inactive) | > 100 µM (inactive) | > 100 µM (inactive) | > 100 µM (inactive) | > 100 µM (inactive) | 54.6 µM (inactive) | > 100 µM (inactive)
7 | Cc1ccccc1C1=[N+]([O-])c2ccc(Cl)cc2C1=O | 20.2 µM (inactive) | 19.6 µM (inactive) | 7.76 µM (inactive) | 13.6 µM (inactive) | 13.3 | 15.3 µM (inactive) | 14.1 µM (inactive) | 17.7 µM (inactive) |  | 23.2 µM (inactive) | 18.5 µM (inactive) | 21.1 µM (inactive) | 15.2 µM (inactive) | 20 µM (inactive) | 12.4 µM (inactive) | 12.5 µM (inactive) | 2.35 µM (inactive)
8 | CC(=O)NC1C(OCc2ccccc2)OC(COC(=O)CCCCCCCCCCNc2ccc([N+](=O)[O-])c3[nH]c4ccccc4c(=O)c23)C(O)C1OC(C)C(=O)NC(C)C(=O)NC(CCC(N)=O)C(=O)OCc1ccccc1 (stereo unspecified) | > 100 µM (inactive) | > 100 µM (inactive) | > 100 µM (inactive) | > 100 µM (inactive) | > 100 | > 100 µM (inactive) | > 100 µM (inactive) | > 100 µM (inactive) | > 100 µM (inactive) | > 100 µM (inactive) | > 100 µM (inactive) | > 100 µM (inactive) | > 100 µM (inactive) | > 100 µM (inactive) | > 100 µM (inactive) | > 100 µM (inactive) | > 100 µM (inactive)
9 | O=S(=O)(c1ccccc1)N1CCC1c1ccccc1 (stereo unspecified) | > 100 µM (inactive) | > 100 µM (inactive) | > 100 µM (inactive) | > 100 µM (inactive) | > 100 | > 100 µM (inactive) | > 100 µM (inactive) | > 100 µM (inactive) | 89.5 µM (inactive) |  | 87.1 µM (inactive) | > 100 µM (inactive) | > 100 µM (inactive) | > 100 µM (inactive) | 77.8 µM (inactive) | > 100 µM (inactive) | 6.34 µM (inactive)
10 | Sc1ccccc1S |  | > 100 µM (inactive) | > 100 µM (inactive) | > 100 µM (inactive) | > 100 | > 100 µM (inactive) |  | > 100 µM (inactive) | > 100 µM (inactive) |  | > 100 µM (inactive) | > 100 µM (inactive) | > 100 µM (inactive) | > 10 µM (inactive) | > 100 µM (inactive) | > 10 µM (inactive) | > 100 µM (inactive)
11 | Cc1ccc(S(=O)(=O)CNC(=S)CCCC(=S)NCS(=O)(=O)c2ccc(C)cc2)cc1 | > 100 µM (inactive) | > 100 µM (inactive) | > 100 µM (inactive) | > 100 µM (inactive) | 53.8 | > 100 µM (inactive) | > 100 µM (inactive) | 35.4 µM (inactive) | > 100 µM (inactive) | > 100 µM (inactive) | > 100 µM (inactive) |  | > 100 µM (inactive) | > 100 µM (inactive) | 44.3 µM (inactive) | > 100 µM (inactive) | 16.1 µM (inactive)
12 | CCCCCCCC(=O)OCC1OC(n2cc(F)c(=O)[nH]c2=O)C(N)C(O)C1O (stereo unspecified) | > 100 µM (inactive) | > 100 µM (inactive) | > 100 µM (inactive) | > 100 µM (inactive) | > 100 | > 100 µM (inactive) | > 100 µM (inactive) | > 100 µM (inactive) | > 100 µM (inactive) | > 100 µM (inactive) | > 100 µM (inactive) | > 100 µM (inactive) | > 100 µM (inactive) |  | > 100 µM (inactive) | > 100 µM (inactive) | > 100 µM (inactive)
13 | COc1cccc2c1C(=O)c1c(O)c3c(c(O)c1C2=O)CC(O)(C(C)=O)CC3OC1CC([N+](C)(C)C)C(O)C(C)O1 (stereo unspecified) | > 100 µM (inactive) | > 100 µM (inactive) | 48.1 µM (inactive) | > 100 µM (inactive) | > 100 | 42.1 µM (inactive) | > 100 µM (inactive) | 72.9 µM (inactive) | > 100 µM (inactive) | > 100 µM (inactive) | > 100 µM (inactive) | > 100 µM (inactive) | 50.7 µM (inactive) | > 100 µM (inactive) | > 100 µM (inactive) | > 100 µM (inactive) | 24 µM (inactive)
14 | N#C[C-](C#N)[n+]1ccc(Cl)cc1 | 28.7 µM (inactive) | 34.3 µM (inactive) | 18.5 µM (inactive) |  | 14.4 | 19.1 µM (inactive) | 23.3 µM (inactive) | 16.2 µM (inactive) | 24.9 µM (inactive) | 18.7 µM (inactive) | 14.4 µM (inactive) |  | 14.4 µM (inactive) | 22.3 µM (inactive) | 15.9 µM (inactive) | 19 µM (inactive) | 4.27 µM (inactive)
15 | COS(=O)CCOC(=O)c1ccccc1SSc1ccccc1C(=O)OCCS(=O)OC (stereo unspecified) | > 100 µM (inactive) | > 100 µM (inactive) | 23.4 µM (inactive) |  | 23.8 | > 100 µM (inactive) | 27.1 µM (inactive) | 20.2 µM (inactive) | 16.4 µM (inactive) | 40.9 µM (inactive) | 32.3 µM (inactive) | 30.7 µM (inactive) | 26.1 µM (inactive) | 81.8 µM (inactive) | 20.5 µM (inactive) | > 100 µM (inactive) | 
16 | Nc1nc(CCc2n[nH]c(N)n2)n[nH]1 | > 100 µM (inactive) | > 100 µM (inactive) | > 100 µM (inactive) | > 100 µM (inactive) | > 100 | > 100 µM (inactive) | > 100 µM (inactive) | > 100 µM (inactive) | > 100 µM (inactive) | > 100 µM (inactive) | > 100 µM (inactive) | > 100 µM (inactive) | > 100 µM (inactive) | > 100 µM (inactive) | > 100 µM (inactive) | > 100 µM (inactive) | > 100 µM (inactive)
17 | Cc1c2cc[n+](C)cc2c(C)c2c1[nH]c1ccc(OC(C)(C)C)cc12 | > 100 µM (inactive) | > 100 µM (inactive) | > 100 µM (inactive) | > 100 µM (inactive) | > 100 | > 100 µM (inactive) | > 100 µM (inactive) | > 100 µM (inactive) | > 100 µM (inactive) | > 100 µM (inactive) | > 100 µM (inactive) | > 100 µM (inactive) | > 100 µM (inactive) | > 100 µM (inactive) | > 100 µM (inactive) |  | > 100 µM (inactive)
